Assay results as given in PubChem BioAssay (NCI).
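Compound exposure: 48 hours, 5 concentrations, 96-well plates. At the GI50, growth is halved. Definition used: TGI = concentration required for complete inhibition of growth.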

Tests used:
Assay in all cases: growth of human tumour cells (NCI), 48 h; in the data active = GI50 below about 0.43 µM; inactive = the rest
U251 CNS = tested on: U251 CNS
HCT-15 colon = tested on: HCT-15 colon
SF-539 CNS = tested on: SF-539 CNS
SW-620 colon = tested on: SW-620 colon
RXF 393 renal = tested on: RXF 393 renal
A498 renal = tested on: A498 renal
SN12C renal = tested on: SN12C renal
OVCAR-5 ovarian = tested on: OVCAR-5 ovarian
SK-MEL-5 melanoma = tested on: SK-MEL-5 melanoma
OVCAR-3 ovarian = tested on: OVCAR-3 ovarian
UO-31 renal = tested on: UO-31 renal
MDA-MB-435 = tested on: MDA-MB-435
NCI-H226 lung = tested on: NCI-H226 lung
A549 NSCLC = tested on: A549 NSCLC
786-0 renal = tested on: 786-0 renal
UACC-257 melanoma = tested on: UACC-257 melanoma
HOP-92 NSCLC = tested on: HOP-92 NSCLC
HCC-2998 colon = tested on: HCC-2998 colon
OVCAR-4 ovarian = tested on: OVCAR-4 ovarian
ACHN renal = tested on: ACHN renal
TK-10 renal = tested on: TK-10 renal
MALME-3M melanoma = tested on: MALME-3M melanoma
HT29 colon = tested on: HT29 colon
UACC-62 melanoma = tested on: UACC-62 melanoma
IGROV1 ovarian = tested on: IGROV1 ovarian
SK-MEL-28 melanoma = tested on: SK-MEL-28 melanoma
MDA-MB-231 breast = tested on: MDA-MB-231 breast
COLO 205 colon = tested on: COLO 205 colon
HL-60(TB) leukemia = tested on: HL-60(TB) leukemia
SF-295 CNS = tested on: SF-295 CNS
EKVX NSCLC = tested on: EKVX NSCLC
SK-OV-3 ovarian = tested on: SK-OV-3 ovarian
SNB-75 CNS = tested on: SNB-75 CNS
SR leukemia = tested on: SR leukemia
HS 578T breast = tested on: HS 578T breast
BT-549 breast = tested on: BT-549 breast
DU-145 prostate = tested on: DU-145 prostate
OVCAR-8 ovarian = tested on: OVCAR-8 ovarian
NCI/ADR-RES ovarian = tested on: NCI/ADR-RES ovarian
T-47D breast = tested on: T-47D breast
KM12 colon = tested on: KM12 colon
PC-3 prostate = tested on: PC-3 prostate
NCI-H23 lung = tested on: NCI-H23 lung
CAKI-1 renal = tested on: CAKI-1 renal
SK-MEL-2 melanoma = tested on: SK-MEL-2 melanoma
SF-268 CNS = tested on: SF-268 CNS
NCI-H460 lung = tested on: NCI-H460 lung
RPMI-8226 leukemia = tested on: RPMI-8226 leukemia
MCF7 breast = tested on: MCF7 breast
MOLT-4 leukemia = tested on: MOLT-4 leukemia
SNB-19 CNS = tested on: SNB-19 CNS
NCI-H522 lung = tested on: NCI-H522 lung
M14 melanoma = tested on: M14 melanoma
CCRF-CEM leukemia = tested on: CCRF-CEM leukemia
HCT-116 colon = tested on: HCT-116 colon
HOP-62 NSCLC = tested on: HOP-62 NSCLC
K-562 leukemia = tested on: K-562 leukemia
LOX IMVI melanoma = tested on: LOX IMVI melanoma

CCCCCCCCCCCCCCCC1=NCCN1
4.87 µM: TGI (SK-MEL-2 melanoma)
3.39 µM: TGI (TK-10 renal)
3.77 µM: TGI (SW-620 colon) | TGI (SK-MEL-28 melanoma)
4.45 µM: TGI (HT29 colon)
6.89 µM: TGI (OVCAR-4 ovarian)
3.7 µM: TGI (ACHN renal)
inactive: GI50 (U251 CNS) 1.87 µM | GI50 (HCT-15 colon) 1.61 µM | GI50 (SF-539 CNS) 1.89 µM | GI50 (SW-620 colon) 1.9 µM | GI50 (RXF 393 renal) 1.75 µM | GI50 (A498 renal) 2.14 µM | GI50 (SN12C renal) 2.07 µM | GI50 (OVCAR-5 ovarian) 2.26 µM | GI50 (SK-MEL-5 melanoma) 1.81 µM | GI50 (OVCAR-3 ovarian) 2.01 µM | GI50 (UO-31 renal) 1.65 µM | GI50 (MDA-MB-435) 1.7 µM | GI50 (NCI-H226 lung) 2.12 µM | GI50 (A549 NSCLC) 2.06 µM | GI50 (786-0 renal) 1.84 µM | GI50 (UACC-257 melanoma) 3.25 µM | GI50 (HOP-92 NSCLC) 2.15 µM | GI50 (HCC-2998 colon) 1.85 µM | GI50 (OVCAR-4 ovarian) 2.38 µM | GI50 (ACHN renal) 1.85 µM | GI50 (TK-10 renal) 1.84 µM | GI50 (MALME-3M melanoma) 2.38 µM | GI50 (HT29 colon) 1.87 µM | GI50 (UACC-62 melanoma) 2.3 µM | GI50 (IGROV1 ovarian) 1.96 µM | GI50 (SK-MEL-28 melanoma) 1.88 µM | GI50 (MDA-MB-231 breast) 2.23 µM | GI50 (COLO 205 colon) 1.86 µM | GI50 (HL-60(TB) leukemia) 1.73 µM | GI50 (SF-295 CNS) 1.97 µM | GI50 (EKVX NSCLC) 1.86 µM | GI50 (SK-OV-3 ovarian) 2.23 µM | GI50 (SNB-75 CNS) 1.58 µM | GI50 (SR leukemia) 1.84 µM | GI50 (HS 578T breast) 2.22 µM | GI50 (BT-549 breast) 6.39 µM | GI50 (DU-145 prostate) 1.9 µM | GI50 (OVCAR-8 ovarian) 2.67 µM | GI50 (NCI/ADR-RES ovarian) 2.16 µM | GI50 (T-47D breast) 2.14 µM | GI50 (KM12 colon) 1.83 µM | GI50 (PC-3 prostate) 2.03 µM | GI50 (NCI-H23 lung) 2.04 µM | GI50 (CAKI-1 renal) 1.67 µM | GI50 (SK-MEL-2 melanoma) 2.36 µM
3.66 µM: TGI (COLO 205 colon)
4.94 µM: TGI (UACC-62 melanoma)
4.7 µM: TGI (NCI-H226 lung)
4.78 µM: TGI (NCI-H23 lung)
6 µM: TGI (HS 578T breast)
3.47 µM: TGI (UO-31 renal)
3.38 µM: TGI (RXF 393 renal)
6.14 µM: TGI (A498 renal)
4.31 µM: TGI (SR leukemia)
4.68 µM: TGI (MDA-MB-231 breast)
3.45 µM: TGI (KM12 colon)
4 µM: TGI (A549 NSCLC)
3.42 µM: TGI (HCC-2998 colon)
3.57 µM: TGI (DU-145 prostate)
3.95 µM: TGI (SF-295 CNS)
5.65 µM: TGI (T-47D breast)
3.26 µM: TGI (MDA-MB-435)
4.29 µM: TGI (SN12C renal)
5.09 µM: TGI (NCI/ADR-RES ovarian)
4.8 µM: TGI (HOP-92 NSCLC)
6.92 µM: TGI (OVCAR-8 ovarian)
6.46 µM: TGI (MALME-3M melanoma)
3.24 µM: TGI (HCT-15 colon) | TGI (SK-MEL-5 melanoma)
3.58 µM: TGI (CAKI-1 renal)
3.6 µM: TGI (SF-539 CNS)
4.51 µM: TGI (IGROV1 ovarian)
9.55 µM: TGI (UACC-257 melanoma)
4.02 µM: TGI (OVCAR-3 ovarian)
3.52 µM: TGI (U251 CNS)
4.39 µM: TGI (EKVX NSCLC)
4.85 µM: TGI (SK-OV-3 ovarian)
3.44 µM: TGI (SNB-75 CNS)
4.24 µM: TGI (PC-3 prostate)
5.53 µM: TGI (OVCAR-5 ovarian)
29.7 µM: TGI (BT-549 breast)
3.89 µM: TGI (HL-60(TB) leukemia)
3.32 µM: TGI (786-0 renal)

CC1(C)S[C@@H]2[C@H](N3C(=O)c4ccccc4C3=O)CN2[C@H]1NC(=O)N[C@@H]1N2C[C@@H](N3C(=O)c4ccccc4C3=O)[C@H]2SC1(C)C
81.3 µM: TGI (SF-268 CNS)
82.1 µM: TGI (RXF 393 renal)
58.5 µM: TGI (U251 CNS)
> 100 µM: TGI (HCT-15 colon) | TGI (SF-539 CNS) | TGI (SW-620 colon) | TGI (A498 renal) | TGI (SN12C renal) | TGI (OVCAR-5 ovarian) | TGI (NCI-H460 lung) | TGI (SK-MEL-5 melanoma) | TGI (OVCAR-3 ovarian) | TGI (UO-31 renal) | TGI (RPMI-8226 leukemia) | TGI (MDA-MB-435) | TGI (NCI-H226 lung) | TGI (MCF7 breast) | TGI (A549 NSCLC) | TGI (786-0 renal) | TGI (MOLT-4 leukemia) | TGI (HOP-92 NSCLC) | TGI (SNB-19 CNS) | TGI (HCC-2998 colon) | TGI (OVCAR-4 ovarian) | TGI (ACHN renal) | TGI (NCI-H522 lung) | TGI (TK-10 renal) | TGI (MALME-3M melanoma) | TGI (HT29 colon) | TGI (UACC-62 melanoma) | TGI (IGROV1 ovarian) | TGI (SK-MEL-28 melanoma) | TGI (MDA-MB-231 breast) | TGI (COLO 205 colon) | TGI (M14 melanoma) | TGI (HL-60(TB) leukemia) | TGI (SF-295 CNS) | TGI (SK-OV-3 ovarian) | TGI (SNB-75 CNS) | TGI (HS 578T breast) | TGI (CCRF-CEM leukemia) | TGI (HCT-116 colon) | TGI (HOP-62 NSCLC) | TGI (K-562 leukemia) | TGI (DU-145 prostate) | TGI (OVCAR-8 ovarian) | TGI (NCI/ADR-RES ovarian) | TGI (T-47D breast) | TGI (KM12 colon) | TGI (PC-3 prostate) | TGI (NCI-H23 lung) | TGI (LOX IMVI melanoma) | TGI (CAKI-1 renal) | TGI (SK-MEL-2 melanoma)
